# In PMC5773651, “Customised in vitro model to detect human metabolism-dependent idiosyncratic drug-induced liver injury” (Archives of Toxicology, 2017):
# Like-named read-outs stand apart in the source and are kept apart here.
# Assays:
# [1] = cited from earlier work
# HepG2 cells [2] = experiment: Cell viability (PI), IC50, control HepG2 cells; assay type: cell-based; conditions: Homo sapiens; control non-transduced HepG2; 24 h; unit inferred, tested range in µM; read-out: IC50 (cell viability), C
# [3] = system: HepG2 cells transduced with AdCYP2D6; experiment: HCS hepatotoxicity assay (MEC, TR), AdCYP2D6-HepG2; assay type: cell-based, human; conditions: 24 h; for TR: TR = 100 x Cmax/lowest MEC; for MEC Apoptosis / MEC Calcium / MEC Lipids / MEC MMP / MEC Mitochondrial superoxide / MEC ROS: unit inferred, tested range in µM
# Experimental: (§1) For subculturing purposes, cells were detached by treatment with 0.25% trypsin/0.02% EDTA at 37 °C. For the adenovirus infection studies, cells were seeded in 96-well plates (5000 cells/well) and adenovirus-containing medium was added 48 h later. After 24 h, cells were transferred to the adenovirus-free medium and cultured for an additional 24-h period prior to the incubations performed with the test chemicals. To optimise the expression of the functional enzymes in the adenovirus-transduced HepG2 (Ad-HepG2) cells, different doses (MOI, multiplicity of infection, defined as plaque formation units per cell) of each adenovirus were tested.
# (§2) The drugs included in the study were chosen based on previous information about their hepatotoxicity. Information on the potential mechanisms implicated in the toxicity of each compound and the major enzymes involved in their metabolism is summarised in Table 1. HepG2 or Ad-HepG2 (48 h post-infection) cells were exposed for 24 h to eight concentrations of the tested compounds. Each experimental condition was repeated independently three times (with three wells measured each time). The stock solutions of compounds were prepared in DMSO and were conveniently diluted in the culture medium to obtain the desired final concentrations. The final DMSO concentration in the culture medium was 0.5% (v/v), and the control cultures were treated with the same amount of solvent.
# (§3) Following treatments, cells were simultaneously loaded with several fluorescent dyes to measure multiple biomarkers of cell toxicity. […] Information about the probes is summarised in Supplementary Table S2.
# (§4) After incubating with dyes, cells were imaged by the Scan^R system (Olympus, Germany). Dyes were excited, and their fluorescence was monitored at the excitation and emission wavelengths at appropriate filter settings. The collected images were analysed using the Scan^R analysis module, which allows the simultaneous quantification of subcellular structures that are stained by different fluorescent probes.
# [4] = system: HepG2 cells transduced with AdCYP2D6; experiment: Cell viability (PI), IC50, AdCYP2D6-HepG2; assay type: cell-based; conditions: Homo sapiens, unit inferred, tested range in µM
# Experimental: as §1, §2, §3, §4
# HepG2 cells [5] = conditions: human, 24 h
# Experimental: as §1, §2, §3, §4
structure (smiles),measurement,setting,value
C1CCC(C(CC2CCCCN2)C2CCCCC2)CC1 (stereo not drawn) [Perhexiline],Bioactivation,[1]; previous information,No
same,Enzyme: major enzyme(s) involved in the bioactivation (denoted as *) or detoxification of the drug,[1]; previous information,CYP2D6
same,Toxicity (mechanisms of toxicity),"[1]; ref Ashrafian et al. [2007], Donato et al. [2009], Fromenty and Pessayre [1997], Rolo et al. [2000], Tolosa et al. [2012b]","MI, ST"
same,DILI category,[1]; ref Gustafsson et al. ([2014]),Severe
same,IC50,HepG2 cells [2],22.5 µM
same,TR,[3]; AdCYP 2D6 1x,17.6
same,MEC Apoptosis,[3]; AdCYP 2D6 1x,22.5 µM
same,MEC Calcium,[3]; AdCYP 2D6 1x,12.5 µM
same,MEC Lipids,[3]; AdCYP 2D6 1x,> 27.5 µM
same,MEC MMP,[3]; AdCYP 2D6 1x,22.5 µM
same,MEC Mitochondrial superoxide,[3]; AdCYP 2D6 1x,22.5 µM
same,MEC ROS,[3]; AdCYP 2D6 1x,> 27.5 µM
same,TR,[3]; AdCYP 2D6 4x,17.6
same,MEC Apoptosis,[3]; AdCYP 2D6 4x,25 µM
same,MEC Calcium,[3]; AdCYP 2D6 4x,12.5 µM
same,MEC Lipids,[3]; AdCYP 2D6 4x,> 27.5 µM
same,MEC MMP,[3]; AdCYP 2D6 4x,27.5 µM
same,MEC Mitochondrial superoxide,[3]; AdCYP 2D6 4x,22.5 µM
same,MEC ROS,[3]; AdCYP 2D6 4x,> 27.5 µM
same,TR,[3]; AdCYP 2D6 10x,17.6
same,MEC Apoptosis,[3]; AdCYP 2D6 10x,25 µM
same,MEC Calcium,[3]; AdCYP 2D6 10x,12.5 µM
same,MEC Lipids,[3]; AdCYP 2D6 10x,> 27.5 µM
same,MEC MMP,[3]; AdCYP 2D6 10x,> 27.5 µM
same,MEC Mitochondrial superoxide,[3]; AdCYP 2D6 10x,22.5 µM
same,MEC ROS,[3]; AdCYP 2D6 10x,> 27.5 µM
same,IC50,"[4]; ADV CYP2D6 x1, 24 h, read-out: IC50 (cell viability), ADV dose x1",24.4 µM
same,IC50,"[4]; ADV CYP2D6 x4, 24 h, read-out: IC50 (cell viability), ADV dose x4",25.5 µM
same,IC50,"[4]; ADV CYP2D6 x10, 24 h, read-out: IC50 (cell viability), ADV dose x10",27.4 µM
same,MEC Apoptosis,HepG2 cells [5],15 µM
same,MEC Calcium,HepG2 cells [5],10
same,MEC Lipids,HepG2 cells [5],10
same,MEC MMP,HepG2 cells [5],22.5
same,MEC Mitochondrial superoxide,HepG2 cells [5],10
same,MEC ROS,HepG2 cells [5],25
same,TR,HepG2 cells [5],22
